Laboratory results reported in patent EP0013790A1, “Clavulanic acid derivatives, their preparation and pharmaceutical compositions containing them” (BEECHAM GROUP PLC, priority 1978, dated 1980).
Converted amounts (≈) assume the structure as drawn.

What was measured:
[1] = test system: Klebsiella aerog. E.70; assay: MIC by standard microtitre method, alone and in admixture with ampicillin; assay type: cell-based; settings: compound alone
Experimental: (§1) The MICs of ampicillin, 9-O-(N-glycyl)-2-amino- ethylclavulanic acid (GAECA) alone and in admixture against a number of bacteria were determined by a standard microtitre method. The results obtained were as follows: The MICs of ampicillin, 9-O-(N-alanyl)-2-amino- ethylclavulanic acid (AAECA) alone and in admixture against a number of bacteria were determined by a standard microtitre method.

[2] = test system: E. coli JT 39; assay: as above; assay type: cell-based; settings: Escherichia coli, JT39; compound alone
Experimental: as §1

[3] = test system: Proteus C 889; assay: as above; assay type: cell-based; settings: compound alone
Experimental: as §1

[4] = test system: Staph. aureus Russell; assay: as above; assay type: cell-based; settings: compound alone; for MIC: Staphylococcus aureus
Experimental: as §1

[5] = test system: E.Col: E96 (R + strain); assay: Synergistic activity in mice infected intraperitoneally; assay type: in vivo; settings: mice infected intraperitoneally with E.Col: E96 (R + strain); oral and sub-cutaneous route
Source text: The results obtained were as follows: • Synergistic activity in Mice infected intraperitoneally with E.Col: E96 (R + strain) [formula]

| MIC [1] [µg/mL] | MIC [2] [µg/mL] | MIC [3] [µg/mL] | MIC [4] [µg/mL] | MIC (µg/ml) Proteus C 889 [3] [µg/mL] | MIC (µg/ml) Staph. aureus Russell [4] [µg/mL] | Compound | Synergistic activity in vivo [5] |
| --- | --- | --- | --- | --- | --- | --- | --- |
| 125 (≈ 399 µM) | 16 (≈ 51.1 µM) | 250 (≈ 798 µM) | 8 (≈ 25.5 µM) |  |  | C[C@H](N)C(=O)NCCOC/C=C1\O[C@@H]2CC(=O)N2[C@H]1C(=O)O [AAECA, 9-0-(N-L-alanyl)-2-aminoethylclavulanic acid] | good activity in vivo by both the oral and sub-cutaneous route |
| 62.5 (≈ 209 µM) | 51.2 (≈ 171 µM) | 250 (≈ 835 µM) | 8 (≈ 26.7 µM) |  |  | NCC(=O)NCCOC/C=C1\O[C@@H]2CC(=O)N2[C@H]1C(=O)O [GAECA, 9-0-(N-Glycyl)-2-aminoethylclavulanic acid] |  |
| 500 (≈ 1430 µM) | 2000 (≈ 5720 µM) | 2000 (≈ 5720 µM) | 250 (≈ 715 µM) | 1000 (≈ 2860 µM) | 500 (≈ 1430 µM) | CC1(C)S[C@@H]2[C@H](NC(=O)[C@H](N)c3ccccc3)C(=O)N2[C@H]1C(=O)O [Ampicillin, ampicillin, reference compound] |  |
